# Data: paper PMC7728545 (Cell, 2020)
# Read-outs that look alike come from different tables or passages of the source.
# B1: DNA45 (45 bp DNA) (dsDNA)
# DNA 1: TACAGATCTACTAGTGATCTATGACTGATCTGTACATGATCTACA
# DNA 2: TGTAGATCATGTACAGATCAGTCATAGATCACTAGTAGATCTGTA
# Tests used:
# [1] = molecular target: T1, AbCdnD (Acinetobacter sp. ATCC 27244, UniProt C0VHD2); assay: cyclic oligonucleotide synthesis; format: biochemical; conditions: K+, Mg2+, Mn2+, pH 9.0-9.4, 37 °C
# T1 sequence (C0VHD2 1-343): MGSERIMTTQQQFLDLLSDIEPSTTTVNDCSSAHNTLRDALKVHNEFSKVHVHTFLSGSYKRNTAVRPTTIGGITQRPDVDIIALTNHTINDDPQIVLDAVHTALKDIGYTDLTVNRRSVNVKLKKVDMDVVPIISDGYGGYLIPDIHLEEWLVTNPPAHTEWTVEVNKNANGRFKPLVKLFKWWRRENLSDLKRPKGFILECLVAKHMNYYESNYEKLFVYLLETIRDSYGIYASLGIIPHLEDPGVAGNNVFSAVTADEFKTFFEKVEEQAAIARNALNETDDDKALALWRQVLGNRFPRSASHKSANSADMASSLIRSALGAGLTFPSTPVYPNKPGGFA
# [2] = molecular target: EcCdnD (Enterobacter hormaechei, UniProt P0DSP4); format: biochemical; conditions: 10 mM MgCl2, 50 mM CAPSO pH 9.4, 37 °C
# [3] = molecular target: T2, EcCap4 K74A (Enterobacter cloacae, UniProt P0DUD5 1-499, K74A); assay: EMSA
# T2 sequence: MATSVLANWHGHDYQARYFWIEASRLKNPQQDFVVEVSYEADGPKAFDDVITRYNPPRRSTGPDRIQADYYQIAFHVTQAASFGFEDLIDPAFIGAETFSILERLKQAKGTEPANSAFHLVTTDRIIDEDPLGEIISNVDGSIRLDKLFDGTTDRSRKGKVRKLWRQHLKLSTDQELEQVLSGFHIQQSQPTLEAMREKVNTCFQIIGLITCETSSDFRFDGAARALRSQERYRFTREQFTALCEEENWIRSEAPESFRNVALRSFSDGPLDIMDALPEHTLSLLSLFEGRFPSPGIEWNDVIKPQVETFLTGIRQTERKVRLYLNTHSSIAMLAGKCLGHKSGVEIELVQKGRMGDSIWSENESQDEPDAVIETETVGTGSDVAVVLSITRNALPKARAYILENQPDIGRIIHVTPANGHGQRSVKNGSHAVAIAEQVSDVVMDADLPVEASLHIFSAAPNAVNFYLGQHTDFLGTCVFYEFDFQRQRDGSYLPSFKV
# [4] = molecular target: AbCap4 K69A (Acinetobacter baumannii, UniProt C0VHC9 1-462, K69A); assay: EMSA
molecule,measurement,setting,value
Nc1ncnc2c1ncn2[C@@H]1O[C@H](COP(=O)(O)OP(=O)(O)OP(=O)(O)O)[C@@H](O)[C@H]1O [ATP],"cyclic oligonucleotide synthesis; AbCap4 activation, TLC, HPLC",[1],ATP is necessary and sufficient to allow AbCdnD to synthesize the activating nucleotide second messenger
same,TLC with 32P-label,"[2]; co-substrate GTP, labelled compound","EcCdnD: ATP, GTP"
Nc1nc2c(ncn2[C@@H]2O[C@H](COP(=O)(O)OP(=O)(O)OP(=O)(O)O)[C@@H](O)[C@H]2O)c(=O)[nH]1 [GTP],TLC with 32P-label,[2]; co-substrate ATP,"EcCdnD: ATP, GTP"
B1,binding result,[3],binds
same,binding result,[4],binds
